Reference: US4020111A, “Propynyloxy alkyl arene insecticides” (priority 1975, dated 1977)
Values joined by “and” are separate entries in the source; they are usually repeats but may differ in a detail not shown here. Identical values can stand only once.

What was measured:
[1] = tested on: polyvalent resistant (CH strain) houseflies; assay: whole plant or invertebrate; format: in vivo, housefly (CH strain); details: for percent kill after 24 hours: CH strain
Description: The effect of O-(2-propynyl) oximes with Dimetilan and with GS 13798 was obtained from tests on polyvalent resistant (CH strain) houseflies that had been chilled and to the dorsal region of which was applied an acetone solution of synergist and insecticide at a ratio of two to one. Duplicate tests were performed using 10 four to five-day old female houseflies per test. After dosage, the flies were put in a plastic petri dish with cotton soaked in a sugar-water solution. These doses of insecticide used without synergist caused 10-40% mortality.
(§1) In Table IX, and in the tables following it, the doses of topically applied insecticides and of synergists unless otherwise noted are expressed as micrograms per fly (μg/fly).
The effect of compounds II-C, II-D and II-E with Dimetilan and GS 13798 was determined, following the procedure of Example 5, from tests on polyvalent resistant (CH strain) houseflies. These doses of insecticide used without synergist caused 10-40% mortality.
(§2) The synergistic effect with GS 13005 of compounds I-A, I-B, I-D, I-E, I-F, I-G and I-I was determined from topical application tests to IN/WHO strain, Rutgers A strain and polyvalent CH strain houseflies using the procedures of Example 5. The percent kills of the IN/WHO strain flies after 24 hours are shown in Table XXVIII; of the Rutgers A strain, in Table XXIX; and of the polyvalent CH strain, in Table XXX. The doses of insecticide alone to the CH strain files caused 10-40% mortality.
(§3) The synergistic effect with Diazinon and GS 13005 of various of the benzyl 2-propynyl ethers identified in Tables II and IIa was determined by topical application tests on IN/WHO strain, and Rutgers A strain and polyvalent, resistant, CH strain houseflies using the procedures of Example 5. The percent kills after 24 hours of IN/WHO strain flies are shown in Table XXXI; of Rutgers A strain flies, in Table XXXII; and of CH strain flies, in Table XXXIII. The doses of insecticide alone to the CH strain flies caused 10-40% mortality.
The synergistic effect with pyrethrum of various synergist compounds was determined by topical application tests on polyvalent, resistant CH strain houseflies following the procedure of Example 5. Application of the insecticide alone caused 10-40% mortality.

[2] = tested on: German male cockroaches (Blatella Germanicus); assay: topical application to thorax, 24 hour mortality of German male cockroaches; format: in vivo, German cockroach (Blatella Germanicus)
Description: The synergistic effect with mobam of synergist compounds I-B, II-H, II-K and IV-C is further illustrated by the 24 hour mortality data of German male cockroaches (Blatella Germanicus) shown in Table XXXX. The synergists and insecticide were diluted in acetone and applied in small droplets to the thorax of the insect. These doses of synergist alone gave zero percent insect mortality.
The synergistic effect with GS 13005 of compounds I-B, II-H, II-K, II-P, II-Q, II-R and IV-C is illustrated by the 24 hour mortality of German male cockroaches shown in Table XXXXI. These doses of synergist alone caused zero percent insect mortality.

mice [3] = assay: synergism of acute toxicity of Dimetilan, GS 13005, Secobarbital and Methadone (intraperitoneal); format: in vivo, Swiss albino white male mice; details: for number of mice dead: 48 hours, of eight mice
Summary of the method: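 Male Swiss albino mice (5–6 weeks, 23–27 g), eight per dose; synergist in corn oil given i.p. 1 h before i.p. insecticide or drug (drugs in distilled water). Lethality recorded over at least 6 h; controls received corn oil plus agent alone.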

[4] = tested on: Rutgers A strain house flies; assay: topical application test, percent kill after 24 hours, Rutgers A strain; format: in vivo, house fly (resistant Rutgers A strain)
Description: as §1
The synergistic effect of O-(2-propynyl) oximes with mobam was determined from topical application tests on susceptible, female, IN/WHO strain house flies and from tests on resistant, female, Rutgers A strain house flies. The synergist and insecticide were dissolved in ACS Grade acetone in such quantities that a 1.0μ liter volume applied to the thorax of 3-to-5 day old CO2 -anesthetized female adult house flies contained the desired dosage. After being treated, the flies were confined, 10 to a plaster petri dish, with 3-5 dishes/treatment, and held for 24-hr. observation of mortality. Reconstituted skim milk on cotton dental wicks was provided during the holding period. The percent kills after 24 hours are shown in Table X for the IN/WHO strain and Table XI for the Rutgers A strain.
The synergistic effect of benzyl 2-propynyl ethers with mobam was determined from topical application tests on IN/WHO and Rutgers A strain houseflies, following the procedure of Example 5. The percent kills after 24 hours are shown in Table XIV for the IN/WHO strain and in Table XV for the Rutgers A strain.
The synergistic effect with Diazinon of compounds I-B, I-D, I-F, I-G, I-H and I-I, identified in Tables I and Ia, was determined from topical application tests on IN/WHO strain houseflies and on Rutgers A strain houseflies by the procedure of Example 5. The percent kills after 24 hours are shown in Table XXV for the IN/WHO strain and Table XXVI for the Rutgers A strain.
as §2, §3
The synergistic effect on IN/WHO strain flies and Rutgers A strain flies of compound IV-C with GS 13005 and with Diazinon was determined by the topical application procedure of Example 5. The percent kills of IN/WHO strain flies after 24 hours are shown in Tables XXXVI and XXXVII; the percent kills of Rutgers A strain flies are shown in Tables XXXVIII and XXXIX.

[5] = tested on: IN/WHO strain house flies; assay: topical application test, percent kill after 24 hours, IN/WHO strain; format: in vivo, house fly (susceptible IN/WHO strain)
Summary of the method: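 Susceptible female IN/WHO house flies, 3–5 days old, CO2-anesthetized, received synergist plus insecticide in acetone (1.0 μL) on the thorax; doses in μg/fly. Flies held 10 per dish, 3–5 dishes/treatment, with skim milk; mortality (percent kill) read at 24 h.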

houseflies = assay: percent kill with Diazinon, Table XXVII (strain not given); format: in vivo, housefly; details: Diazinon 5 + synergist 10 μg/fly, 1440 min
[6] = tested on: Wilson strain house flies; format: in vivo, house fly (susceptible Wilson strain); details: for Contact Synergistic Ratio, Carbaryl (LC50 insecticide alone / LC50 with synergist): in vivo; for Contact Synergistic Ratio, Pyrolan (LC50 insecticide alone / LC50 with synergist): synergist to insecticide 5:1 by weight, 24 h
Summary of the method: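 Flies held at room temperature in glass jars coated with acetone-deposited insecticide film, alone or with synergist at 5:1 synergist:insecticide by weight; 10% sugar supplied.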

mice [7] = assay: acute toxicity of Dimetilan alone and of synergist alone (intraperitoneal); format: in vivo, Swiss albino white male mice; details: synergist alone 1000 mg/kg ip, 72 hours, of eight mice
Description: To determine the acute toxicity of dimetilan alone, eight dosage levels of Dimetilan, ranging from 4 to 32 mg per kg wer applied to eight, Swiss, albino, white, male mice per dosage level. The mice weighed approximately 23 to 27 grams and were five to size weeks old. The Dimetilan was administered intraperitoneally in 0.1 ml of corn oil one hour after the administration of the same dose of corn oil alone.
To determine the acute toxicity of the synergist alone, various synergists were administered intraperitoneally at a dose of 1000 mg/kg to each of a group of eight mice. The number of animals dead at the end of 72 hours is reported in the left hand column of Table XXXXVI.

mice [8] = assay: extension of Noludar sleeping time by synergists; format: in vivo, Swiss albino white male mice; details: Noludar 110 mg/K, synergist 110 mg/K; for Relative Sleeping Time: treated/control
Summary of the method: (§4)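 Swiss albino male mice (~38 days, 25-30 g) given synergist at 74.0 or 110.0 mg/kg in corn oil 1 h before Secobarbital 37.0 mg/kg or Noludar 110.0 mg/kg in water. Sleeping time measured from drug dosing to righting-reflex recovery; relative sleeping time = treated ÷ drug-only control.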

mice [9] = assay: extension of Secobarbital sleeping time by synergists; format: in vivo, Swiss albino white male mice; details: Secobarbital 37 mg/K; for Relative Sleeping Time: treated/control
Summary of the method: as §4

[10] = synergist alone at doses of Table XXXXI
[11] = Dimetilan 8 mg/kg + synergist 240 mg/kg ip
[12] = GS 13005 71 mg/kg + synergist 213 mg/kg
[13] = Methadone 32 mg/kg + synergist 215 mg/kg
[14] = Secobarbital 90 mg/kg + synergist 215 mg/kg

Row | SMILES | Contact Synergistic Ratio, Carbaryl (LC50 insecticide alone / LC50 with synergist) [6] | Contact Synergistic Ratio, Pyrolan (LC50 insecticide alone / LC50 with synergist) [6] | insect mortality, synergist alone [2, 10] | number of mice dead (mice [7]) | Mean Sleeping Time (mice [8]) [min] | Relative Sleeping Time (mice [8]) | Mean Sleeping Time (mice [9]; synergist 74 mg/K) [min] | Relative Sleeping Time (mice [9]; synergist 74 mg/K) | Mean Sleeping Time (mice [9]; synergist 110 mg/K) [min] | Relative Sleeping Time (mice [9]; synergist 110 mg/K) | number of mice dead (mice [3]; [11]) | mice lethality (number dead) (mice [3]; [12]) | mice lethality (number dead) (mice [3]; [13]) | mice lethality (number dead) (mice [3]; [14]) | also measured
1 | COc1nn(CSP(=S)(OC)OC)c(=O)s1 [GS 13005, S-((2-methoxy-5-oxo-Δ^2-1,3,4-thiadiazolin-4-yl)methyl) O,O-dimethyl phosphorodithioate, reference compound] | – | – | – | – | – | – | – | – | – | – | – | – | – | – | mortality at 1 µg/fly ([1]; Musca domestica, topical, 24 h, read-out: mortality, insecticide alone): 10 to 40%; 24 hour mortality ([2]; GS 13005 alone, dose 0.08, 1440 min): 15% and 23% and 10%; mice lethality (number dead) (mice [3]; control: GS 13005 71 mg/kg in 0.1 ml corn oil): 5; percent kill after 24 hours ([4]; GS 13005 alone 1.0 μg/fly, 1440 min): 2%; percent kill after 24 hours ([5]; GS 13005 alone 0.05 μg/fly): 0%; percent kill after 24 hours ([5]; GS 13005 alone 0.10 μg/fly, 1440 min): 19% and 16% and 12%
2 | C#CCON=Cc1ccc(OC)c(OC)c1 [I-A] | 200 | 30 | – | – | – | – | – | – | – | – | – | – | – | – | percent kill (houseflies): 45%; percent kill after 24 hours ([1]; Dimetilan 2 + synergist 4 μg/fly): 100%; percent kill after 24 hours ([1]; GS 13005 1 + synergist 2 μg/fly): 45%; percent kill after 24 hours ([1]; GS 13798 1 + synergist 2 μg/fly): 65%; percent kill after 24 hours ([1]; Pyrethrum 2 + synergist 4 μg/fly): 15%
3 | C#CCOCc1c(Cl)cccc1Cl [II-H] | 300 | 40 | zero | 0 | 68 | 2.2 | 44 | 1.4 | 51 | 2.1 | 6 | 7 | 4 | 0 | insect mortality, synergist alone ([2]; synergist alone at doses of Table XXXX): zero; number of mice dead (mice [3]; Dimetilan 8 mg/kg + synergist 80 mg/kg ip): 0
4 | C#CCOCc1ccccc1[N+](=O)[O-] [II-P, 2-nitrobenzyl 2-propynyl ether] | – | – | zero | 2 | 44 | 1.5 | – | – | 46 | 1.0 | 0 | 6 | 0 | 0 | –
5 | C#CCOCc1ccc([N+](=O)[O-])cc1 [II-Q, 4-nitrobenzyl 2-propynyl ether] | – | – | zero | 7 | 41 | 2.1 | 30 | 1.1 | 73 | 1.6 | 1 | 6 | – | – | –
6 | CNC(=O)Oc1cccc2sccc12 [Mobam, 4-benzo(b) thienyl-N-methylcarbamate, reference compound] | – | – | – | – | – | – | – | – | – | – | – | – | – | – | 24 hour mortality ([2]; Mobam alone, dose 0.12): 10%; 24 hour mortality ([2]; Mobam alone, dose 0.16): 30%; percent kill after 24 hours ([4]; Mobam alone 0.15 μg/fly): 0%; percent kill after 24 hours ([4]; Mobam alone 0.30 μg/fly): 0%; percent kill after 24 hours ([4]; Mobam alone 0.40 μg/fly): 7%; percent kill after 24 hours ([4]; Mobam alone 0.60 μg/fly): 4%; percent kill after 24 hours ([5]; Mobam alone 0.05 μg/fly): 0%; percent kill after 24 hours ([5]; Mobam alone 0.10 μg/fly): zero; percent kill after 24 hours ([5]; Mobam alone 0.10 μg/fly, 1440 min): 0%; percent mortality 24 hours ([5]; Mobam alone 0.13 μg/fly): 0%; percent kill after 24 hours ([5]; Mobam alone 0.20 μg/fly, 1440 min): 2%; percent mortality 24 hours ([5]; Mobam alone 0.50 μg/fly, 1440 min): 83%; percent mortality 24 hours ([5]; Mobam alone 1.0 μg/fly, 1440 min): 73% and 93%; change in lethality on doubling dose of mobam alone ([5]; mobam alone 0.05 to 0.10 mg/fly (so in the source)): no increase in lethality
